According to PubChem BioAssay (NCI):
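Compound exposure: 48 hours, 5 concentrations, 96-well plates. GI50: concentration for 50% inhibition of growth. TGI denotes the concentration required for complete inhibition of growth.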

Tests used:
Assay in all cases: inhibition of tumour cell growth, NCI panel, 48 h
A498 renal = system: A498 renal
A549 NSCLC = system: A549 NSCLC
HOP-62 NSCLC = system: HOP-62 NSCLC
KM12 colon = system: KM12 colon
M14 melanoma = system: M14 melanoma
NCI-H23 lung = system: NCI-H23 lung
PC-3 prostate = system: PC-3 prostate
RXF 393 renal = system: RXF 393 renal
SNB-19 CNS = system: SNB-19 CNS
U251 CNS = system: U251 CNS

| SMILES | GI50 (A498 renal) | TGI (A498 renal) | GI50 (A549 NSCLC) | TGI (A549 NSCLC) | GI50 (HOP-62 NSCLC) | TGI (HOP-62 NSCLC) | GI50 (KM12 colon) | TGI (KM12 colon) | GI50 (M14 melanoma) | TGI (M14 melanoma) | GI50 (NCI-H23 lung) | TGI (NCI-H23 lung) | GI50 (PC-3 prostate) | TGI (PC-3 prostate) | GI50 (RXF 393 renal) | TGI (RXF 393 renal) | GI50 (SNB-19 CNS) | TGI (SNB-19 CNS) | GI50 (U251 CNS) | TGI (U251 CNS) |
| --- | --- | --- | --- | --- | --- | --- | --- | --- | --- | --- | --- | --- | --- | --- | --- | --- | --- | --- | --- | --- |
| CCOc1c(Br)cc(C2C(C(=O)OC)=CN(C)C=C2C(=O)OC)cc1OC | 16.5 µM | 98.2 µM | 47.8 µM | > 100 µM | > 100 µM | > 100 µM | 38.6 µM | > 100 µM | 64.1 µM | > 100 µM | 84.9 µM | > 100 µM | 30 µM | > 100 µM | 24.1 µM | > 100 µM | 83.8 µM | > 100 µM | 42.6 µM | > 100 µM |
| CC[C@H](C)[C@H]1NC(=O)[C@@H](N[C@](C)(O)[C@@H](N)CC(C)C)[C@@H](C)OC(=O)[C@H](Cc2ccc(OC)cc2)N(C)C(=O)[C@@H]2CCCN2C(=O)[C@H](CC(C)C)NC(=O)[C@@H](C)C(=O)[C@H](C(C)C)OC(=O)C[C@@H]1O | 0.037 µM | 0.403 µM | 0.0115 µM | 0.47 µM | 0.0146 µM | 0.601 µM | < 0.0108 µM | 0.829 µM | 0.0215 µM | 0.289 µM | 0.0122 µM | 0.146 µM | 0.0164 µM | 0.208 µM | 0.019 µM | 0.173 µM | 0.0137 µM | 0.461 µM | 0.0119 µM | 0.188 µM |
| COC(=O)Nc1nc2ccc(Oc3ccc(NC(=O)Nc4cccc(C(=O)O)c4)cc3)cc2[nH]1 | 4.98 µM | > 25 µM | 10.5 µM | > 25 µM | 7.09 µM | > 22 µM | 5.26 µM | > 21.2 µM | 6.75 µM | > 25 µM | 9.64 µM | > 25 µM | 8.44 µM | > 25 µM | 3.37 µM | 10.9 µM | 9.36 µM | > 25 µM | 7.35 µM | > 25 µM |
| Cn1cc(C2=C(c3cccc4ccccc34)C(=O)NC2=O)c2ccccc21 | 6.76 µM | 22.5 µM | 7.63 µM | > 25 µM | 18.5 µM | > 25 µM | 7.3 µM | > 22.6 µM | 11.5 µM | > 25 µM | 8.92 µM | > 25 µM | 7.51 µM | > 25 µM | 4.41 µM | 9.93 µM | 14 µM | > 25 µM | 7.44 µM | > 25 µM |
| COc1cc(-c2nc(Nc3nc4ccccc4[nH]3)nc(N)c2C#N)cc(OC)c1OC | 0.424 µM | 22 µM | 30.7 µM | > 100 µM | 5.04 µM | 53.2 µM | 0.714 µM | > 100 µM | 2.34 µM | 36.5 µM | 12.2 µM | 40.2 µM | 1.65 µM | > 93.3 µM | 0.378 µM | 23.7 µM | 21 µM | > 100 µM | 10.8 µM | 72.4 µM |
| CCCN(CCC)C(=O)C1=Cc2ccc(-c3ccc(C(=O)N4CCCC4)cc3)cc2N=C(N)C1 | 9.01 µM | 71.1 µM | 7.69 µM | 35.3 µM | 12.6 µM | 65.4 µM | 5.01 µM | 21.4 µM | 5.66 µM | 22.7 µM | 8.92 µM | 38.9 µM | 8.56 µM | > 95.4 µM | 5.13 µM | 19.3 µM | 18.8 µM | > 100 µM | 7.69 µM | 24.6 µM |
| COc1cccc(C2c3cc4c(cc3OC(C)(O)C2C)OCO4)c1O (stereo not drawn) |  | 18.8 µM |  | 66.6 µM |  | 44.4 µM |  | 36.6 µM |  | 24.2 µM |  | 12.4 µM |  | > 100 µM |  | 34.1 µM |  | > 100 µM |  | 21.1 µM |
| C=C1C(=O)O[C@@H]2C[C@@]3(C)CCC[C@H](C)C3=C[C@H]12 |  | 24.9 µM |  | 31 µM |  | 24.7 µM |  | 24.8 µM |  | 12.6 µM |  | 17.5 µM |  | 24.2 µM |  | 18.8 µM |  | 30.1 µM |  | 21.5 µM |
| CC1=CC(=NC(=O)CBr)C=C/C1=N\S(=O)(=O)c1ccccc1 | 14.3 µM | 28.2 µM | 13.9 µM | 34.8 µM | 11.9 µM | 25.1 µM | 16.8 µM | 31.2 µM | 3.26 µM | 13.9 µM | 2.36 µM | 5.99 µM | 3.17 µM | 13.2 µM | 1.77 µM | 3.89 µM | 13.6 µM | 26.9 µM | 3.37 µM | 12.2 µM |
| COc1ccc(CCN2C(=O)C=CC2=O)cc1OC |  | 33.1 µM |  | 50.2 µM |  | 53.8 µM |  | 40.8 µM |  | 24.1 µM |  | 53.8 µM |  | 35.1 µM |  | 19.9 µM |  | 37.2 µM |  | 39.1 µM |
| CC(C)=CCC[C@H](C)[C@@H]1CC[C@]2(C)C3CC[C@]4(OC4(C)C)C(CCCO)[C@]3(C)CC[C@@]12C (stereo partly drawn) | 20.1 µM | 37.2 µM | 37.7 µM | > 100 µM | 20.8 µM | 44.4 µM | 22.5 µM | 59.5 µM | 32.1 µM | > 100 µM | 18.7 µM | 40.2 µM | 18.2 µM | 41.1 µM | 18.3 µM | 37.6 µM | 24 µM | 62.3 µM | 19.7 µM | 66.1 µM |
| Cn1cc(-c2nc(-c3c[nH]c4ncccc34)cs2)c2cc(F)ccc21 | 2.03 µM | 7.48 µM | 2.81 µM | > 25.6 µM | 4.11 µM | 16.5 µM | 0.83 µM | 5.16 µM | 2.93 µM | 9.74 µM | 2.4 µM | 10.1 µM | 2.75 µM | 13.1 µM | 2.49 µM | 9.14 µM | 3.82 µM | 20 µM | 2.43 µM | 8.08 µM |
| Cn1cncc1[C@@](N)(c1ccc(Cl)cc1)c1ccc2c(c1)c(-c1cccc(Cl)c1)cc(=O)n2C | 0.887 µM | 17.2 µM | 2.05 µM | 10.2 µM | 5.51 µM | 18.4 µM | 1.18 µM | 7.02 µM | 0.0818 µM | 11.1 µM | 2.64 µM | 14.4 µM | 1.47 µM | 7.99 µM | 2.41 µM | 11.5 µM | 5.61 µM | 19.7 µM | 1.4 µM | 7.49 µM |
| CC1=C(C(=O)Nc2ccc(F)c(Cl)c2)C(c2ccccc2Cl)NC(=S)N1 (stereo not drawn) | 12.9 µM | 48.1 µM | 24.8 µM | > 50 µM | > 50 µM | > 50 µM | 41.9 µM | > 50 µM | 34.9 µM | > 50 µM | > 50 µM | > 50 µM | 20.2 µM | > 50 µM | 16.9 µM | 37.7 µM | 40 µM | > 50 µM | 25.6 µM | > 50 µM |
| O=C1CC(c2ccc(N3CCOCC3)cc2)(c2ccsc2)NC(=O)C1Sc1ccccc1Cl (stereo not drawn) | 10.4 µM | > 100 µM | > 100 µM | > 100 µM | 60.3 µM | > 100 µM | 43.7 µM | > 100 µM | 60.7 µM | > 100 µM | 65.5 µM | > 100 µM | 53.1 µM | > 100 µM | 5.65 µM | > 100 µM | 30.3 µM | > 100 µM | 19.5 µM | > 100 µM |
| Oc1ccc2cc(Br)ccc2c1-c1c(O)ccc2cc(Br)ccc12 | 2.95 µM | 10.3 µM | 3.78 µM | 13.1 µM | 2.62 µM | 11.1 µM | 2.93 µM | 10.4 µM | 3.91 µM | 14 µM | 2.23 µM | 5.82 µM | 3.24 µM | 13 µM | 2.79 µM | 5.93 µM | 3.92 µM | 15.9 µM | 3.93 µM | 12.9 µM |
| COc1ccc(-c2[nH]c3ccccc3c2C=C(C#N)C#N)cc1 | 0.294 µM | 2.12 µM | 0.694 µM | > 100 µM | 0.962 µM | 21.8 µM | 0.373 µM |  | 0.289 µM |  | 0.6 µM | > 42.8 µM | 0.547 µM | > 100 µM | 0.511 µM | > 100 µM | 1.3 µM | 36.5 µM | 0.479 µM | > 100 µM |
| COc1cc(NS(C)(=O)=O)ccc1Nc1c2ccc(Cl)cc2nc2c(OC)cccc12 | 0.156 µM | 2.24 µM | 0.0135 µM | 1.35 µM | 0.0561 µM | 1.44 µM | 0.268 µM | 1.81 µM | 0.146 µM | 1.83 µM | 0.125 µM | 5.36 µM | 0.782 µM | 15.2 µM | 0.411 µM | 3.04 µM | 0.135 µM | 22.3 µM | 0.0982 µM | 1.32 µM |
| Cn1nccc1Nc1nccc(-c2cc3c(s2)C(C)(C)N(CCN2CCOCC2)C3=O)n1 | 0.659 µM | 5.99 µM | 5.27 µM | > 100 µM | 7.53 µM | > 100 µM | 7.86 µM | > 100 µM | 0.312 µM | > 37.4 µM | 0.858 µM | > 100 µM | 28.8 µM | > 100 µM | 4.73 µM | > 85.3 µM | 41.9 µM | > 100 µM | 33.7 µM | > 100 µM |
